# Reference: patent publication US20120029187A1, “HALOALKYLSULFONANILIDE DERIVATIVE” (Nissan Chemical Industries, Ltd., priority 2009, published 2012)
# Assays:
# Type in all cases: in vivo
# barnyardgrass [1] = assay: Test Example 1: herbicidal effects in preemergence treatment under submerged conditions; conditions: dose 2.52 g/a
# Procedure, shortened: (§1)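 Score 0–5 by mortality (5: ≥90%; 0: <5%), read 3 weeks post-application. Paddy-type cups: alluvial soil under 4 cm water, weeds seeded plus transplanted 2.5-leaf rice; diluted EC dosed onto water surface same day as sowing, g/a basis; greenhouse 25 to 30° C.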
# bulrush [2] = assay: as above; conditions: dose 2.52 g/a
# Procedure, shortened: as §1
# ducksalad [3] = assay: as above; conditions: dose 2.52 g/a
# Procedure, shortened: as §1
# common chickweed [4] = assay: Test Example 4: herbicidal effect in foliage treatment; conditions: dose 3.2 g/a
# Procedure, shortened: (§2)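 Herbicidal effect was rated on an evaluation scale three weeks after treatment. Plants had been raised 14 days at 25 to 30° C in sterilized diluvial soil, then received foliar sprays of emulsifiable concentrate diluted in water at predetermined doses expressed as g per are.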
# beadstraw = assay: as above; conditions: dose 3.2 g/a
# Procedure, shortened: as §2
# giant foxtail [5] = assay: as above; conditions: dose 3.2 g/a
# Procedure, shortened: as §2
# common ragweed [6] = assay: as above; conditions: dose 3.2 g/a
# Procedure, shortened: as §2
# water foxtail [7] = assay: as above; conditions: dose 3.2 g/a
# Procedure, shortened: as §2
# Italian ryegrass [8] = assay: as above; conditions: dose 3.2 g/a
# Procedure, shortened: as §2
# large crabgrass [9] = assay: as above; conditions: dose 3.2 g/a
# Procedure, shortened: as §2
# barnyardgrass [10] = assay: as above; conditions: dose 3.2 g/a
# Procedure, shortened: as §2
# common lambsquater [11] = assay: as above; conditions: dose 3.2 g/a
# Procedure, shortened: as §2
# velvetleaf [12] = assay: as above; conditions: dose 3.2 g/a
# Procedure, shortened: as §2
# posumbu knotweed [13] = assay: as above; conditions: dose 3.2 g/a
# Procedure, shortened: as §2
# redroot pigweed [14] = assay: as above; conditions: dose 3.2 g/a
# Procedure, shortened: as §2
# barnyardgrass [15] = assay: Test Example 2: herbicidal effects during the vegetation period under submerged conditions; conditions: treatment during the vegetation period under submerged conditions; dose 2.52 g/a
# Procedure, shortened: (§3)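 Barnyardgrass, bulrush and ducksalad were co-sown in alluvial soil flooded to 4 cm and grown in a greenhouse at 25 to 30° C. At the 1- or 2-leaf stage, water-diluted emulsifiable concentrates went onto the water surface at set doses (g/a). Herbicidal effect was scored three weeks later on a graded scale.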
# bulrush [16] = assay: as above; conditions: treatment during the vegetation period under submerged conditions; dose 2.52 g/a
# Procedure, shortened: as §3
# ducksalad [17] = assay: as above; conditions: treatment during the vegetation period under submerged conditions; dose 2.52 g/a
# Procedure, shortened: as §3
# common chickweed [18] = assay: Test Example 3: herbicidal effects in soil treatment; conditions: dose 3.2 g/a
# Procedure, shortened: (§4)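 Seeds were sown in sterilized diluvial soil and covered with about 1.5 cm of soil. Compounds, formulated as emulsifiable concentrates and diluted with water, were sprayed evenly over the soil surface at set doses in g/a. Herbicidal effect was scored on a rating scale three weeks later.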
# giant foxtail [19] = assay: as above; conditions: dose 3.2 g/a
# Procedure, shortened: as §4
# common ragweed [20] = assay: as above; conditions: dose 3.2 g/a
# Procedure, shortened: as §4
# water foxtail [21] = assay: as above; conditions: dose 3.2 g/a
# Procedure, shortened: as §4
# Italian ryegrass [22] = assay: as above; conditions: dose 3.2 g/a
# Procedure, shortened: as §4
# large crabgrass [23] = assay: as above; conditions: dose 3.2 g/a
# Procedure, shortened: as §4
# barnyardgrass [24] = assay: as above; conditions: dose 3.2 g/a
# Procedure, shortened: as §4
# common lambsquater [25] = assay: as above; conditions: dose 3.2 g/a
# Procedure, shortened: as §4
# velvetleaf [26] = assay: as above; conditions: dose 3.2 g/a
# Procedure, shortened: as §4
# posumbu knotweed [27] = assay: as above; conditions: dose 3.2 g/a
# Procedure, shortened: as §4
# redroot pigweed [28] = assay: as above; conditions: dose 3.2 g/a
# Procedure, shortened: as §4
# transplanted rice = assay: Test Example 1: preemergence treatment under submerged conditions, effect on crop; conditions: dose 2.52 g/a
# Procedure, shortened: as §1
# [29] = three weeks after the application
smiles,measurement,setting,value
CCOC(=O)N(c1ccccc1CN1COC(C)(CC(F)(F)F)CC1=O)S(=O)(=O)C(F)(F)F (stereo not drawn) [II-53],"A: barnyardgrass, herbicidal effect (evaluation scale 0-5)",barnyardgrass [1],5 (mortality of 90% or above (nearly complete death))
same,"B: bulrush, herbicidal effect (evaluation scale 0-5)",bulrush [2],5 (mortality of 90% or above (nearly complete death))
same,"C: ducksalad, herbicidal effect (evaluation scale 0-5)",ducksalad [3],5 (mortality of 90% or above (nearly complete death))
same,"N: common chickweed, herbicidal effect",common chickweed [4]; three weeks after application,5 (mortality of 90% or above (nearly complete death))
same,"O: beadstraw, herbicidal effect",beadstraw; three weeks after application,5 (mortality of 90% or above (nearly complete death))
same,"E: giant foxtail, herbicidal effect",giant foxtail [5]; three weeks after application,3 (mortality of at least 40% and less than 70%)
same,"J: common ragweed, herbicidal effect",common ragweed [6]; three weeks after application,3 (mortality of at least 40% and less than 70%)
same,"G: water foxtail, herbicidal effect",water foxtail [7]; three weeks after application,5 (mortality of 90% or above (nearly complete death))
same,"H: Italian ryegrass, herbicidal effect",Italian ryegrass [8]; three weeks after application,4 (mortality of at least 70% and less than 90%)
same,"D: large crabgrass, herbicidal effect",large crabgrass [9]; three weeks after application,3 (mortality of at least 40% and less than 70%)
same,"A: barnyardgrass, herbicidal effect",barnyardgrass [10]; three weeks after application,4 (mortality of at least 70% and less than 90%)
same,"L: common lambsquater, herbicidal effect",common lambsquater [11]; three weeks after application,2 (mortality of at least 20% and less than 40%)
same,"I: velvetleaf, herbicidal effect",velvetleaf [12]; three weeks after application,4 (mortality of at least 70% and less than 90%)
same,"M: posumbu knotweed, herbicidal effect",posumbu knotweed [13]; three weeks after application,4 (mortality of at least 70% and less than 90%)
same,"K: redroot pigweed, herbicidal effect",redroot pigweed [14]; three weeks after application,0 (mortality of less than 5% (almost ineffective))
same,"A: barnyardgrass, herbicidal effect (evaluation scale 0-5)",barnyardgrass [15],5 (mortality of 90% or above (nearly complete death))
same,"B: bulrush, herbicidal effect (evaluation scale 0-5)",bulrush [16],5 (mortality of 90% or above (nearly complete death))
same,"C: ducksalad, herbicidal effect (evaluation scale 0-5)",ducksalad [17],5 (mortality of 90% or above (nearly complete death))
same,"N: common chickweed, herbicidal effect (evaluation scale 0-5)",common chickweed [18],5 (mortality of 90% or above (nearly complete death))
same,"E: giant foxtail, herbicidal effect (evaluation scale 0-5)",giant foxtail [19],5 (mortality of 90% or above (nearly complete death))
same,"J: common ragweed, herbicidal effect (evaluation scale 0-5)",common ragweed [20],4 (mortality of at least 70% and less than 90%)
same,"G: water foxtail, herbicidal effect (evaluation scale 0-5)",water foxtail [21],5 (mortality of 90% or above (nearly complete death))
same,"H: Italian ryegrass, herbicidal effect (evaluation scale 0-5)",Italian ryegrass [22],3 (mortality of at least 40% and less than 70%)
same,"D: large crabgrass, herbicidal effect (evaluation scale 0-5)",large crabgrass [23],5 (mortality of 90% or above (nearly complete death))
same,"A: barnyardgrass, herbicidal effect (evaluation scale 0-5)",barnyardgrass [24],5 (mortality of 90% or above (nearly complete death))
same,"L: common lambsquater, herbicidal effect (evaluation scale 0-5)",common lambsquater [25],0 (mortality of less than 5% (almost ineffective))
same,"I: velvetleaf, herbicidal effect (evaluation scale 0-5)",velvetleaf [26],5 (mortality of 90% or above (nearly complete death))
same,"M: posumbu knotweed, herbicidal effect (evaluation scale 0-5)",posumbu knotweed [27],5 (mortality of 90% or above (nearly complete death))
same,"K: redroot pigweed, herbicidal effect (evaluation scale 0-5)",redroot pigweed [28],0 (mortality of less than 5% (almost ineffective))
same,"a: transplanted rice, effect on crop (evaluation scale 0-5)",transplanted rice,0 (mortality of less than 5% (almost ineffective))
CCC1CON(Cc2ccccc2N(C(=O)OCCCl)S(=O)(=O)C(F)(F)F)C(=O)O1 (stereo not drawn) [III-7],"A: barnyardgrass, herbicidal effect (evaluation scale 0-5)",barnyardgrass [1],5 (mortality of 90% or above (nearly complete death))
same,"B: bulrush, herbicidal effect (evaluation scale 0-5)",bulrush [2],5 (mortality of 90% or above (nearly complete death))
same,"C: ducksalad, herbicidal effect (evaluation scale 0-5)",ducksalad [3],5 (mortality of 90% or above (nearly complete death))
same,"N: common chickweed, herbicidal effect",common chickweed [4]; [29],3 (mortality of at least 40% and less than 70%)
same,"O: beadstraw, herbicidal effect",beadstraw; [29],2 (mortality of at least 20% and less than 40%)
same,"E: giant foxtail, herbicidal effect",giant foxtail [5]; [29],3 (mortality of at least 40% and less than 70%)
same,"J: common ragweed, herbicidal effect",common ragweed [6]; [29],4 (mortality of at least 70% and less than 90%)
same,"G: water foxtail, herbicidal effect",water foxtail [7]; [29],5 (mortality of 90% or above (nearly complete death))
same,"H: Italian ryegrass, herbicidal effect",Italian ryegrass [8]; [29],0 (mortality of less than 5% (almost ineffective))
same,"D: large crabgrass, herbicidal effect",large crabgrass [9]; [29],3 (mortality of at least 40% and less than 70%)
same,"A: barnyardgrass, herbicidal effect",barnyardgrass [10]; [29],5 (mortality of 90% or above (nearly complete death))
same,"L: common lambsquater, herbicidal effect",common lambsquater [11]; [29],4 (mortality of at least 70% and less than 90%)
same,"I: velvetleaf, herbicidal effect",velvetleaf [12]; [29],0 (mortality of less than 5% (almost ineffective))
same,"M: posumbu knotweed, herbicidal effect",posumbu knotweed [13]; [29],0 (mortality of less than 5% (almost ineffective))
same,"K: redroot pigweed, herbicidal effect",redroot pigweed [14]; [29],3 (mortality of at least 40% and less than 70%)
same,"A: barnyardgrass, herbicidal effect (evaluation scale 0-5)",barnyardgrass [15],5 (mortality of 90% or above (nearly complete death))
same,"B: bulrush, herbicidal effect (evaluation scale 0-5)",bulrush [16],5 (mortality of 90% or above (nearly complete death))
same,"C: ducksalad, herbicidal effect (evaluation scale 0-5)",ducksalad [17],5 (mortality of 90% or above (nearly complete death))
same,"herbicidal effect, N: common chickweed",common chickweed [18],5 (mortality of 90% or above (nearly complete death))
same,"herbicidal effect, E: giant foxtail",giant foxtail [19],5 (mortality of 90% or above (nearly complete death))
same,"herbicidal effect, J: common ragweed",common ragweed [20],4 (mortality of at least 70% and less than 90%)
same,"herbicidal effect, G: water foxtail",water foxtail [21],5 (mortality of 90% or above (nearly complete death))
same,"herbicidal effect, H: Italian ryegrass",Italian ryegrass [22],4 (mortality of at least 70% and less than 90%)
same,"herbicidal effect, D: large crabgrass",large crabgrass [23],5 (mortality of 90% or above (nearly complete death))
same,"herbicidal effect, A: barnyardgrass",barnyardgrass [24],5 (mortality of 90% or above (nearly complete death))
same,"herbicidal effect, L: common lambsquater",common lambsquater [25],4 (mortality of at least 70% and less than 90%)
same,"herbicidal effect, I: velvetleaf",velvetleaf [26],0 (mortality of less than 5% (almost ineffective))
same,"herbicidal effect, M: posumbu knotweed",posumbu knotweed [27],4 (mortality of at least 70% and less than 90%)
same,"herbicidal effect, K: redroot pigweed",redroot pigweed [28],1 (mortality of at least 5% and less than 20%)
same,"a: transplanted rice, effect on crop (evaluation scale 0-5)",transplanted rice,0 (mortality of less than 5% (almost ineffective))
